Source: the NIST ThermoML archive (doi:10.1021/je034157t)
Numbers after ± are expanded uncertainties.

Details: Liquid

SMILES	vapor or sublimation pressure (295.82 K) [kPa]	vapor or sublimation pressure (303.17 K) [kPa]	vapor or sublimation pressure (305.11 K) [kPa]	vapor or sublimation pressure (313.05 K) [kPa]	vapor or sublimation pressure (318.04 K) [kPa]	vapor or sublimation pressure (323.24 K) [kPa]	vapor or sublimation pressure (327.95 K) [kPa]	vapor or sublimation pressure (293.17 K) [kPa]	vapor or sublimation pressure (302.95 K) [kPa]	vapor or sublimation pressure (309.84 K) [kPa]	vapor or sublimation pressure (313.03 K) [kPa]	vapor or sublimation pressure (319.81 K) [kPa]	vapor or sublimation pressure (303.04 K) [kPa]	vapor or sublimation pressure (303.05 K) [kPa]	vapor or sublimation pressure (309.28 K) [kPa]	vapor or sublimation pressure (313.11 K) [kPa]	vapor or sublimation pressure (316.36 K) [kPa]	vapor or sublimation pressure (318.1 K) [kPa]
F[C@H]([C@@H](F)C(F)(F)C(F)(F)F)C(F)(F)F (relative stereo) [(R*,R*)-1,1,1,2,2,3,4,5,5,5-decafluoropentane]	26.69 ± 0.08	37.25 ± 0.09	40.56 ± 0.09	56.54 ± 0.11	68.94 ± 0.12	84.1 ± 0.13	99.96 ± 0.14	–	–	–	–	–	–	–	–	–	–	–
F[C@H]([C@H](F)C(F)(F)F)C(F)(F)C(F)(F)F (relative stereo) [(R*,S*)-1,1,1,2,2,3,4,5,5,5-decafluoropentane]	–	–	–	–	–	–	–	34.49 ± 0.1	52.41 ± 0.11	68.93 ± 0.13	77.9 ± 0.15	99.95 ± 0.17	–	–	–	–	–	–
C1CCOC1 [tetrahydrofuran]	–	–	29.09 ± 0.08	–	–	–	–	–	–	–	–	–	26.67 ± 0.08	26.68 ± 0.08	34.5 ± 0.09	40.15 ± 0.09	45.51 ± 0.1	48.62 ± 0.1
